# According to the supplement of paper PMC10307832:
# Tests used:
# Assay in all cases: relative viability (nuclei count vs DMSO), 5 days (fraction); higher = more cells survive
# [1] = tested on: A-427
# In short: (§1)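 Lung cancer cell lines were pin-tool dosed in 1536-well plates on the day after seeding, with either a lone drug or a fixed anchor-drug dose plus five library-drug doses (not always all listed) in √10 steps. Nuclei were counted on 4× images after 5 days. Relative viability is the ratio of treated-well to vehicle-well nuclei counts, with each value a median of duplicate plates.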
# [2] = tested on: NCI-H2347
# In short: as §1
# [3] = tested on: BEN
# In short: as §1
# [4] = tested on: NCI-H661
# In short: as §1
# [5] = tested on: NCI-H460
# In short: as §1
# [6] = tested on: EKVX
# In short: as §1
# [7] = tested on: EPLC-272H
# In short: as §1
# [8] = tested on: NCI-H2087
# In short: as §1
# [9] = tested on: EMC-BAC-2
# In short: as §1
# [10] = tested on: NCI-H520
# In short: as §1
# [11] = tested on: LK-2
# In short: as §1
# [12] = tested on: LXF-289
# In short: as §1
# [13] = tested on: SW 1573
# In short: as §1
# [14] = tested on: SW 900
# In short: as §1
# [15] = tested on: COR-L23
# In short: as §1
# [16] = tested on: NCI-H2228
# In short: as §1
# [17] = tested on: NCI-H1650
# In short: as §1
# [18] = tested on: NCI-H1793
# In short: as §1
# [19] = tested on: NCI-H1915
# In short: as §1
# [20] = tested on: NCI-H1651
# In short: as §1
# [21] = tested on: HCC-44
# In short: as §1
# [22] = tested on: NCI-H358
# In short: as §1
compound,measurement,setting,value
COCC1(CO)C(=O)C2CCN1CC2 (configuration not stated) [PRIMA-1MET] + CCNC(=O)c1noc(-c2cc(C(C)C)c(O)cc2O)c1-c1ccc(CN2CCOCC2)cc1 [Luminespib] (partner 0.01 µM),relative viability,[1]; first compound 0.2 µM,1.19
same,relative viability,[1]; first compound 0.6325 µM,0.717
same,relative viability,[1]; first compound 2 µM,0.714
same,relative viability,[1]; first compound 6.325 µM,0.763
same,relative viability,[1]; first compound 20 µM,0.58
same,relative viability,[2]; first compound 0.2 µM,0.262
same,relative viability,[2]; first compound 0.6325 µM,0.403
same,relative viability,[2]; first compound 2 µM,0.174
same,relative viability,[2]; first compound 6.325 µM,0.386
same,relative viability,[2]; first compound 20 µM,0.349
same,relative viability,[3]; first compound 0.2 µM,0.35
same,relative viability,[3]; first compound 0.6325 µM,0.276
same,relative viability,[3]; first compound 6.325 µM,0.24
same,relative viability,[3]; first compound 20 µM,0.18
same,relative viability,[4]; first compound 0.2 µM,1.02
same,relative viability,[4]; first compound 0.6325 µM,0.886
same,relative viability,[4]; first compound 2 µM,0.965
same,relative viability,[4]; first compound 6.325 µM,0.929
same,relative viability,[4]; first compound 20 µM,0.886
same,relative viability,[5]; first compound 0.2 µM,0.0337
same,relative viability,[5]; first compound 0.6325 µM,0.0272
same,relative viability,[5]; first compound 2 µM,0.0258
same,relative viability,[5]; first compound 6.325 µM,0.0312
same,relative viability,[5]; first compound 20 µM,0.0174
same,relative viability,[6]; first compound 0.2 µM,1.03
same,relative viability,[6]; first compound 0.6325 µM,0.808
same,relative viability,[6]; first compound 6.325 µM,0.805
same,relative viability,[6]; first compound 20 µM,0.729
same,relative viability,[7]; first compound 2 µM,0.277
same,relative viability,[7]; first compound 6.325 µM,0.237
same,relative viability,[7]; first compound 20 µM,0.146
same,relative viability,[8]; first compound 0.2 µM,0.167
same,relative viability,[8]; first compound 0.6325 µM,0.17
same,relative viability,[8]; first compound 2 µM,0.153
same,relative viability,[8]; first compound 6.325 µM,0.181
same,relative viability,[8]; first compound 20 µM,0.0951
same,relative viability,[9]; first compound 0.2 µM,1.37
same,relative viability,[9]; first compound 0.6325 µM,1.12
same,relative viability,[9]; first compound 6.325 µM,1.23
same,relative viability,[9]; first compound 20 µM,0.957
same,relative viability,[10]; first compound 0.2 µM,0.214
same,relative viability,[10]; first compound 0.6325 µM,0.215
same,relative viability,[10]; first compound 2 µM,0.186
same,relative viability,[10]; first compound 6.325 µM,0.2
same,relative viability,[10]; first compound 20 µM,0.203
same,relative viability,[11]; first compound 0.2 µM,0.152
same,relative viability,[11]; first compound 0.6325 µM,0.188
same,relative viability,[11]; first compound 2 µM,0.158
same,relative viability,[11]; first compound 6.325 µM,0.167
same,relative viability,[11]; first compound 20 µM,0.121
same,relative viability,[12]; first compound 0.2 µM,0.878
same,relative viability,[12]; first compound 0.6325 µM,0.673
same,relative viability,[12]; first compound 2 µM,0.74
same,relative viability,[12]; first compound 6.325 µM,0.712
same,relative viability,[12]; first compound 20 µM,0.624
same,relative viability,[13]; first compound 0.2 µM,0.233
same,relative viability,[13]; first compound 2 µM,0.214
same,relative viability,[13]; first compound 6.325 µM,0.0379
same,relative viability,[13]; first compound 20 µM,0.0227
same,relative viability,[14]; first compound 0.2 µM,0.171
same,relative viability,[14]; first compound 0.6325 µM,0.176
same,relative viability,[14]; first compound 2 µM,0.162
same,relative viability,[14]; first compound 6.325 µM,0.136
same,relative viability,[14]; first compound 20 µM,0.091
same,relative viability,[15]; first compound 0.2 µM,0.691
same,relative viability,[15]; first compound 0.6325 µM,0.528
same,relative viability,[15]; first compound 2 µM,0.711
same,relative viability,[15]; first compound 6.325 µM,0.578
same,relative viability,[15]; first compound 20 µM,0.0159
same,relative viability,[16]; first compound 0.2 µM,0.212
same,relative viability,[16]; first compound 0.6325 µM,0.139
same,relative viability,[16]; first compound 2 µM,0.0997
same,relative viability,[16]; first compound 6.325 µM,0.192
same,relative viability,[16]; first compound 20 µM,0.056
same,relative viability,[17]; first compound 0.2 µM,0.228
same,relative viability,[17]; first compound 0.6325 µM,0.212
same,relative viability,[17]; first compound 2 µM,0.185
same,relative viability,[17]; first compound 6.325 µM,0.193
same,relative viability,[17]; first compound 20 µM,0.123
same,relative viability,[18]; first compound 0.2 µM,0.138
same,relative viability,[18]; first compound 0.6325 µM,0.177
same,relative viability,[18]; first compound 6.325 µM,0.195
same,relative viability,[18]; first compound 20 µM,0.159
same,relative viability,[19]; first compound 0.2 µM,0.868
same,relative viability,[19]; first compound 0.6325 µM,0.506
same,relative viability,[19]; first compound 6.325 µM,0.853
same,relative viability,[19]; first compound 20 µM,0.697
same,relative viability,[20]; first compound 0.2 µM,0.99
same,relative viability,[20]; first compound 0.6325 µM,0.704
same,relative viability,[20]; first compound 2 µM,0.66
same,relative viability,[20]; first compound 6.325 µM,1.06
same,relative viability,[20]; first compound 20 µM,0.824
same,relative viability,[21]; first compound 0.2 µM,1.36
same,relative viability,[21]; first compound 0.6325 µM,0.964
same,relative viability,[21]; first compound 2 µM,0.817
same,relative viability,[21]; first compound 6.325 µM,1.14
same,relative viability,[21]; first compound 20 µM,0.896
same,relative viability,[22]; first compound 0.2 µM,0.314
same,relative viability,[22]; first compound 0.6325 µM,0.312
same,relative viability,[22]; first compound 2 µM,0.354
same,relative viability,[22]; first compound 6.325 µM,0.416
same,relative viability,[22]; first compound 20 µM,0.287
